Data: PMC10385865, “Synthesis and Anticancer Activity of Novel Dual Inhibitors of Human Protein Kinases CK2 and PIM-1” (Pharmaceutics, 2023)

Legend:
Type in all cases: cell-based, human
CCRF-CEM cells = test: Mitochondrial membrane potential (ΔΨm) assay, JC-1, flow cytometry; conditions: 10 µM, 48 h
Method: Mitochondrial membrane potential was assessed by flow cytometry using 5,5′,6,6′-tetrachloro-1,1′,3,3′-tetraethylbenzimidazolocarbocyanine iodide (JC-1; Sigma-Aldrich, St. Louis, MO, USA). JC-1 undergoes potential-dependent accumulation in mitochondria. In healthy cells, the dye accumulates in mitochondria, forming aggregates with red fluorescence (FL-2 channel), whereas in dead and apoptotic cells, the dye remains in the cytoplasm in a monomeric form and emits green fluorescence (FL-1 channel). Cells were harvested by centrifugation 48 h post treatment, suspended in 1 mL of complete culture medium at approximately 1 × 10^6 cells/mL, and incubated with 2.5 µL of JC-1 solution in DMSO (1 mg/mL) for 15 min at 37 °C in the dark. The stained cells were then washed with cold PBS, suspended in 400 µL of PBS, and examined by flow cytometry.
The most significant effect, i.e., 45% of cells with reduced ΔΨm, was obtained in cells treated with 10 µM conc. of rac-6.

[1] = test system: phosphorylation of Ser112 in BAD (marker of PIM-1 activity), MCF-7; test: Western blot/densitometry, intracellular PIM-1 inhibition, MCF-7; conditions: MCF-7, 10 µM, 48 h, densitometry
Method: (§1) All the procedures are described in detail in Supplementary Materials (Section S3.3). The protein concentration was determined using a Bradford assay.
(§2) For densitometry, immunoblots were scanned using G Box Chemi (Syngene, Cambridge, UK), and the density of each lane of phosphorylated and total protein was quantified using GeneSys software (Syngene, Cambridge, UK). Phosphorylated protein densities were normalized to GAPDH densities, assuming 1 for untreated cells; then, they were converted to a percentage of the appropriate control.
(§3) The data obtained for p65 confirmed the intracellular inhibition of CK2 by the tested compounds in all the studied cell lines in a dose-dependent manner. […] Otherwise, Western blot data for BAD (a marker of PIM-1 activity) indicated inhibition of PIM-1 only in MCF-7 cells, with the most significant reduction in phosphorylated BAD in cells treated with 10 µM conc. of rac-6 (0.49 of control) (Figure 8b). Unexpectedly, the relative level of BAD-P in the drug-treated CCRF-CEM and K-562 cells was even higher than in control cells.
(§4) The following primary antibodies were used: anti-GAPDH (Millipore, St. Louis, MO, USA; […]
(§5) overnight, +4°C); anti-BAD (Apoptosis I Sampler Kit, # 612741, BD Biosciences, San Diego, CA, USA; 1:1000, overnight, +4°C), anti-phospho-BAD-Ser112 (CST, Beverly, MA, USA; 9291S, 1:500 overnight, +4°C). […]

[2] = test system: phosphorylation of Ser112 in BAD (marker of PIM-1 activity), CCRF-CEM; test: Western blot/densitometry, intracellular PIM-1 inhibition, CCRF-CEM; conditions: 48 h
Method: as §1, §2, §3, §4, §5

OC(CNc1nc2c(Br)c(Br)c(Br)c(Br)c2[nH]1)C(F)(F)F (racemic) [rac-6, 1,1,1-Trifluoro-3-[(4,5,6,7-tetrabromo-1H-benzimidazol-2-yl)amino]propan-2-ol]
cells with reduced ΔΨm (CCRF-CEM cells): 45%
phosphorylated BAD, relative level [1]: 0.49 of control
level of phosphorylated BAD (in words) [2]: increased level of phosphorylated BAD
